How the values were obtained:
Assay type in all cases: in vivo
[1] = tested on: Alopecurus myosuroides (ALOMY); assay: Herbicidal pre-emergence action (A), 1280 g/ha; conditions: visual grading after ca. 3 weeks vs untreated controls, 100% = plants have died off, 0% = as control plants
Outline: (§1)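 Pre-emergence greenhouse test: seeds sown in sandy loam pots, WP or EC formulations sprayed onto covering soil as aqueous suspension/emulsion with 0.5% additive at 600 l water/ha. Damage graded visually after ca. 3 weeks versus untreated controls, 0% = as control, 100% = plants dead.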

[2] = tested on: Amaranthus retroflexus (AMARE); assay: Herbicidal pre-emergence action (A), 1280 g/ha; conditions: visual grading after ca. 3 weeks vs untreated controls
Outline: as §1

[3] = tested on: Digitaria sanguinalis (DIGSA); assay: Herbicidal pre-emergence action (A), 1280 g/ha; conditions: visual grading after ca. 3 weeks vs untreated controls, 100% = plants have died off, 0% = as control plants
Outline: as §1

[4] = tested on: Echinochloa crus-galli (ECHCG); assay: Herbicidal pre-emergence action (A), 1280 g/ha; conditions: visual grading after ca. 3 weeks vs untreated controls, 100% = plants have died off, 0% = as control plants
Outline: as §1

[5] = tested on: Kochia scoparia (KCHSC; Bassia scoparia); assay: Herbicidal pre-emergence action (A), 1280 g/ha; conditions: visual grading after ca. 3 weeks vs untreated controls
Outline: as §1

[6] = tested on: Lolium rigidum (LOLRI); assay: Herbicidal pre-emergence action (A), 1280 g/ha; conditions: visual grading after ca. 3 weeks vs untreated controls, 100% = plants have died off, 0% = as control plants
Outline: as §1

[7] = tested on: Matricaria inodora (MATIN); assay: Herbicidal pre-emergence action (A), 1280 g/ha; conditions: visual grading after ca. 3 weeks vs untreated controls
Outline: as §1

[8] = tested on: Poa annua (POAAN); assay: Herbicidal pre-emergence action (A), 1280 g/ha; conditions: visual grading after ca. 3 weeks vs untreated controls, 100% = plants have died off, 0% = as control plants
Outline: as §1

[9] = tested on: Setaria viridis (SETVI); assay: Herbicidal pre-emergence action (A), 1280 g/ha; conditions: visual grading after ca. 3 weeks vs untreated controls
Outline: as §1

[10] = tested on: Stellaria media (STEME); assay: Herbicidal pre-emergence action (A), 1280 g/ha; conditions: visual grading after ca. 3 weeks vs untreated controls
Outline: as §1

[11] = tested on: Veronica persica (VERPE); assay: Herbicidal pre-emergence action (A), 1280 g/ha; conditions: visual grading after ca. 3 weeks vs untreated controls
Outline: as §1

[12] = tested on: Abutilon theophrasti (ABUTH); assay: Herbicidal post-emergence action (B), 1280 g/ha; conditions: rated visually after about 3 weeks vs untreated controls
Outline: (§2)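 Post-emergence greenhouse test: weeds in sandy loam treated at the one-leaf stage, 2 to 3 weeks after sowing, with WP or EC formulations plus 0.5% additive at 600 l/ha water. Visual activity versus untreated controls after about 3 weeks (100% = dead, 0% = like control).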

[13] = tested on: Alopecurus myosuroides (ALOMY); assay: Herbicidal post-emergence action (B), 1280 g/ha; conditions: rated visually after about 3 weeks vs untreated controls
Outline: as §2

[14] = tested on: Amaranthus retroflexus (AMARE); assay: Herbicidal post-emergence action (B), 1280 g/ha; conditions: rated visually after about 3 weeks vs untreated controls
Outline: as §2

[15] = tested on: Digitaria sanguinalis (DIGSA); assay: Herbicidal post-emergence action (B), 1280 g/ha; conditions: rated visually after about 3 weeks vs untreated controls
Outline: as §2

[16] = tested on: Echinochloa crus-galli (ECHCG); assay: Herbicidal post-emergence action (B), 1280 g/ha; conditions: rated visually after about 3 weeks vs untreated controls
Outline: as §2

[17] = tested on: Kochia scoparia (KCHSC; Bassia scoparia); assay: Herbicidal post-emergence action (B), 1280 g/ha
Outline: as §2

[18] = tested on: Matricaria inodora (MATIN); assay: Herbicidal post-emergence action (B), 1280 g/ha; conditions: rated visually after about 3 weeks vs untreated controls
Outline: as §2

[19] = tested on: Poa annua (POAAN); assay: Herbicidal post-emergence action (B), 1280 g/ha; conditions: rated visually after about 3 weeks vs untreated controls
Outline: as §2

[20] = tested on: Setaria viridis (SETVI); assay: Herbicidal post-emergence action (B), 1280 g/ha; conditions: rated visually after about 3 weeks vs untreated controls
Outline: as §2

[21] = tested on: Stellaria media (STEME); assay: Herbicidal post-emergence action (B), 1280 g/ha
Outline: as §2

[22] = tested on: Veronica persica (VERPE); assay: Herbicidal post-emergence action (B), 1280 g/ha
Outline: as §2

[23] = tested on: Alopecurus myosuroides (ALOMY); assay: Herbicidal pre-emergence action (C), 320 g/ha; conditions: ca. 3 weeks
Outline: (§3)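 Seeds sown in sandy loam; WP or EC formulations sprayed on covering soil pre-emergence at 320 g/ha in 600 l water/ha with 0.5% additive. Greenhouse culture; damage scored visually after ca. 3 weeks versus untreated controls (0% = as control, 100% = plants dead).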

[24] = tested on: Amaranthus retroflexus (AMARE); assay: Herbicidal pre-emergence action (C), 320 g/ha; conditions: ca. 3 weeks
Outline: as §3

[25] = tested on: Echinochloa crus-galli (ECHCG); assay: Herbicidal pre-emergence action (C), 320 g/ha; conditions: ca. 3 weeks
Outline: as §3

[26] = tested on: Lolium rigidum (LOLRI); assay: Herbicidal pre-emergence action (C), 320 g/ha; conditions: ca. 3 weeks
Outline: as §3

[27] = tested on: Setaria viridis (SETVI); assay: Herbicidal pre-emergence action (C), 320 g/ha; conditions: ca. 3 weeks
Outline: as §3

[28] = tested on: Digitaria sanguinalis (DIGSA); assay: Herbicidal pre-emergence action (C), 320 g/ha; conditions: ca. 3 weeks
Text: (§4) Seeds of mono- and dicotyledonous weed plants and crop plants were sown, in plastic or organic planting pots, in sandy loam and covered with soil. The compounds according to the invention, formulated in the form of wettable powders (WP) or as emulsifiable concentrates (EC), were applied to the surface of the covering soil as aqueous suspension or emulsion, with the addition of 0.5% of an additive, at an application rate of 600 l of water/ha (converted).
(§5) Following treatment, the pots were placed in a greenhouse and kept under optimum growth conditions for the test plants. The visual grading of the damage to the test plants was carried out after ca. 3 weeks in comparison to untreated controls (herbicidal effect in percent (%): 100% effect=plants have died off, 0% effect=as control plants).
(§6) Tables C1 to C13 below show the effects of selected compounds of the general formula (I) according to table 1 on various harmful plants and an application rate corresponding to 320 g/ha obtained by the experimental procedure mentioned above.

[29] = tested on: Abutilon theophrasti (ABUTH); assay: Herbicidal post-emergence action (D), 320 g/ha; conditions: ca. 3 weeks
Outline: (§7)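 Post-emergence greenhouse spray of WP or EC formulations plus 0.5% additive at 600 l water/ha onto single-leaf-stage plants, 2–3 weeks after sowing in sandy loam. About 3 weeks later, effect was rated visually against untreated controls as % herbicidal effect, where 0% means like control and 100% means plants dead.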

[30] = tested on: Alopecurus myosuroides (ALOMY); assay: Herbicidal post-emergence action (D), 320 g/ha; conditions: ca. 3 weeks
Outline: as §7

[31] = tested on: Amaranthus retroflexus (AMARE); assay: Herbicidal post-emergence action (D), 320 g/ha; conditions: ca. 3 weeks
Outline: as §7

[32] = tested on: Echinochloa crus-galli (ECHCG); assay: Herbicidal post-emergence action (D), 320 g/ha; conditions: ca. 3 weeks
Outline: as §7

[33] = tested on: Veronica persica (VERPE); assay: Herbicidal post-emergence action (D), 320 g/ha; conditions: ca. 3 weeks
Outline: as §7

[34] = tested on: Abutilon theophrasti (ABUTH); assay: Herbicidal pre-emergence action (C), 320 g/ha; conditions: ca. 3 weeks
Outline: as §3

[35] = tested on: Veronica persica (VERPE); assay: Herbicidal pre-emergence action (C), 320 g/ha; conditions: ca. 3 weeks
Outline: as §3

[36] = tested on: Polygonum convolvulus (POLCO); assay: Herbicidal post-emergence action (D), 320 g/ha; conditions: ca. 3 weeks
Outline: as §7

[37] = tested on: Setaria viridis (SETVI); assay: Herbicidal post-emergence action (D), 320 g/ha; conditions: ca. 3 weeks
Outline: as §7

[38] = tested on: Matricaria inodora (MATIN); assay: Herbicidal pre-emergence action (C), 320 g/ha; conditions: ca. 3 weeks
Outline: as §3

[39] = tested on: Avena fatua; assay: Herbicidal pre-emergence action (C), 320 g/ha; conditions: ca. 3 weeks
Text: as §4, §5, §6

[40] = tested on: Viola tricolor (VIOTR); assay: Herbicidal post-emergence action (D), 320 g/ha; conditions: ca. 3 weeks
Outline: as §7

Compound | herbicidal effect AMARE [2] [%] | herbicidal effect MATIN [7] [%] | POAAN, herbicidal effect in percent (%) [8] [%] | herbicidal effect SETVI [9] [%] | herbicidal effect STEME [10] [%] | herbicidal activity AMARE [14] [%] | herbicidal activity ECHCG [16] [%] | herbicidal effect KCHSC [17] [%] | herbicidal activity POAAN [19] [%] | herbicidal activity SETVI [20] [%] | herbicidal effect STEME [21] [%] | herbicidal effect VERPE [22] [%] | herbicidal effect ALOMY [23] [%] | herbicidal effect AMARE [24] [%] | herbicidal effect ECHCG [25] [%] | herbicidal effect SETVI [27] [%] | herbicidal effect ABUTH [29] [%] | herbicidal effect ALOMY [30] [%] | herbicidal effect ECHCG [32] [%] | herbicidal effect VERPE [33] [%] | other results
c1ccc(-c2ccc3scnc3n2)cc1 [Example I-010] | 90 | 100 | 100 | 100 | 100 | 100 | 90 | 100 | 100 | 100 | 100 | 100 | 100 | 90 | 100 | 100 | 80 | 90 | 90 | – | ALOMY, herbicidal effect in percent (%) [1]: 100%; DIGSA, herbicidal effect in percent (%) [3]: 100%; ECHCG, herbicidal effect in percent (%) [4]: 100%; herbicidal effect KCHSC [5]: 90%; LOLRI, herbicidal effect in percent (%) [6]: 100%; herbicidal effect VERPE [11]: 90%; herbicidal activity ABUTH [12]: 100%; herbicidal activity ALOMY [13]: 100%; herbicidal activity DIGSA [15]: 100%; herbicidal activity MATIN [18]: 100%; herbicidal effect LOLRI [26]: 100%; herbicidal effect DIGSA [28]: 100%; herbicidal effect AMARE [31]: 80%
CCc1cc2sc(OC)nc2nc1-c1ccccc1C [Example I-094] | 100 | 100 | 100 | 100 | 100 | 100 | 100 | 100 | 100 | 100 | 100 | 100 | – | – | 80 | – | 80 | – | – | 90 | DIGSA, herbicidal effect in percent (%) [3]: 100%; herbicidal activity ABUTH [12]: 100%; herbicidal activity ALOMY [13]: 100%; herbicidal activity DIGSA [15]: 100%; herbicidal activity MATIN [18]: 100%
Clc1cc2scnc2nc1-c1sccc1Cl [Example I-189] | 90 | 90 | 100 | 100 | 90 | 90 | 100 | 90 | 90 | 90 | 90 | 90 | 100 | 80 | 100 | 100 | 80 | 90 | 90 | 80 | ALOMY, herbicidal effect in percent (%) [1]: 90%; ECHCG, herbicidal effect in percent (%) [4]: 100%; herbicidal effect KCHSC [5]: 90%; LOLRI, herbicidal effect in percent (%) [6]: 90%; herbicidal effect VERPE [11]: 90%; herbicidal effect ABUTH [34]: 80%; herbicidal effect VERPE [35]: 80%; herbicidal effect POLCO [36]: 80%; herbicidal effect SETVI [37]: 90%
Fc1ccc(-c2nc3ncsc3cc2Cl)c(F)c1 [Example I-127] | – | – | – | – | – | – | – | – | – | – | – | – | 90 | 80 | 100 | 100 | 80 | 90 | 90 | 80 | herbicidal effect LOLRI [26]: 80%; herbicidal effect MATIN [38]: 80%; herbicidal effect VERPE [35]: 90%; herbicidal effect AVEFA [39]: 90%; herbicidal effect POLCO [36]: 90%; herbicidal effect SETVI [37]: 90%; herbicidal effect VIOTR [40]: 80%

From patent US20230151025A1, “SUBSTITUTED THIAZOLOPYRIDINES, SALTS THEREOF AND THEIR USE AS HERBICIDALLY ACTIVE SUBSTANCES” (Bayer Aktiengesellschaft, priority 2020, published 2023)
